Data from ChEMBL document CHEMBL1144287, “Synthesis and antifungal activity of noble 5-arylamino- and 6-arylthio-4,7-dioxobenzoselenazoles” (2005).
In brackets after ≈: the same amount, converted by molar mass.

Experiments:
Type in all cases: functional
Pichia kudriavzevii = experiment: Minimum inhibitory concentration was measured against Candida krusei ATCC 749 using modified Sabouraud dextrose broth; (a)
Candida tropicalis = experiment: Minimum inhibitory concentration was measured against Candida tropicalis ATCC 28775 using modified Sabouraud dextrose broth; (a)
Aspergillus flavus = experiment: Minimum inhibitory concentration was measured against Aspergillus flavus KCCM 11899 using modified Sabouraud dextrose broth; (a)
Aspergillus niger = experiment: Minimum inhibitory concentration was measured against Aspergillus niger KCTC 1231 using modified Sabouraud dextrose broth; (a)
Candida albicans = experiment: Minimum inhibitory concentration was measured against Candida albicans ATCC 10231 using modified Sabouraud dextrose broth; (a)

Structure (SMILES) | MIC (Pichia kudriavzevii) [µg/mL] | MIC (Candida tropicalis) [µg/mL] | MIC (Aspergillus flavus) [µg/mL] | MIC (Aspergillus niger) [µg/mL] | MIC (Candida albicans) [µg/mL]
Cc1nc2c([se]1)C(=O)C=C(Nc1cc(Cl)cc(Cl)c1)C2=O | 25 (≈ 64.8 µM) | 3.2 (≈ 8.29 µM) | 12.5 (≈ 32.4 µM) | 12.5 (≈ 32.4 µM) | 1.6 (≈ 4.14 µM)
COc1ccc(NC2=CC(=O)c3[se]c(C)nc3C2=O)cc1 | 12.5 (≈ 36 µM) | 12.5 (≈ 36 µM) | 12.5 (≈ 36 µM) | 12.5 (≈ 36 µM) | 12.5 (≈ 36 µM)
COC1=C(Sc2ccc(OC)cc2)C(=O)c2[se]c(C)nc2C1=O | 12.5 (≈ 31.7 µM) | 12.5 (≈ 31.7 µM) | 25 (≈ 63.4 µM) | 12.5 (≈ 31.7 µM) | 25 (≈ 63.4 µM)
COC1=C(Sc2ccc(F)c(F)c2)C(=O)c2[se]c(C)nc2C1=O | 6.3 (≈ 15.7 µM) | 6.3 (≈ 15.7 µM) | 25 (≈ 62.5 µM) | 25 (≈ 62.5 µM) | 12.5 (≈ 31.2 µM)
Cc1nc2c([se]1)C(=O)C=C(Nc1cccc(F)c1)C2=O | 6.3 (≈ 18.8 µM) | 3.2 (≈ 9.55 µM) | 12.5 (≈ 37.3 µM) | 12.5 (≈ 37.3 µM) | 12.5 (≈ 37.3 µM)
Cc1ccc(NC2=CC(=O)c3[se]c(C)nc3C2=O)cc1 | 25 (≈ 75.5 µM) | 25 (≈ 75.5 µM) | 12.5 (≈ 37.7 µM) | 6.3 (≈ 19 µM) | 6.3 (≈ 19 µM)
Cc1nc2c([se]1)C(=O)C=C(Nc1ccccc1)C2=O | 6.3 (≈ 19.9 µM) | 6.3 (≈ 19.9 µM) | 6.3 (≈ 19.9 µM) | 6.3 (≈ 19.9 µM) | 6.3 (≈ 19.9 µM)
Nc1nc(=O)[nH]cc1F [FLUCYTOSINE] | 50 (≈ 387 µM) | 12.5 (≈ 96.8 µM) | 50 (≈ 387 µM) | 12.5 (≈ 96.8 µM) | 12.5 (≈ 96.8 µM)
Cc1nc2c([se]1)C(=O)C=C(Nc1ccc(Cl)cc1)C2=O | 12.5 (≈ 35.5 µM) | 12.5 (≈ 35.5 µM) | 12.5 (≈ 35.5 µM) | 12.5 (≈ 35.5 µM) | 12.5 (≈ 35.5 µM)
COC1=CC(=O)c2[se]c(C)nc2C1=O | 25 (≈ 97.6 µM) | 12.5 (≈ 48.8 µM) | 50 (≈ 195 µM) | 25 (≈ 97.6 µM) | 50 (≈ 195 µM)
COC1=C(Sc2ccc(Cl)cc2)C(=O)c2[se]c(C)nc2C1=O | 25 (≈ 62.7 µM) | 12.5 (≈ 31.3 µM) | 25 (≈ 62.7 µM) | 25 (≈ 62.7 µM) | 25 (≈ 62.7 µM)
Cc1nc2c([se]1)C(=O)C=C(Nc1ccc(F)cc1)C2=O | 6.3 (≈ 18.8 µM) | 6.3 (≈ 18.8 µM) | 12.5 (≈ 37.3 µM) | 6.3 (≈ 18.8 µM) | 6.3 (≈ 18.8 µM)
Cc1nc2c([se]1)C(=O)C=C(Nc1ccc(Br)cc1)C2=O | 50 (≈ 126 µM) | 50 (≈ 126 µM) | 50 (≈ 126 µM) | 25 (≈ 63.1 µM) | 12.5 (≈ 31.6 µM)
COC1=C(Sc2ccc(C)cc2)C(=O)c2[se]c(C)nc2C1=O | 25 (≈ 66.1 µM) | 6.3 (≈ 16.7 µM) | 50 (≈ 132 µM) | 25 (≈ 66.1 µM) | 12.5 (≈ 33 µM)
COC1=C(Sc2ccc([N+](=O)[O-])cc2)C(=O)c2[se]c(C)nc2C1=O | 25 (≈ 61.1 µM) | 1.6 (≈ 3.91 µM) | 12.5 (≈ 30.5 µM) | 50 (≈ 122 µM) | 3.2 (≈ 7.82 µM)
COC1=C(Sc2ccc(F)cc2)C(=O)c2[se]c(C)nc2C1=O | 25 (≈ 65.4 µM) | 3.2 (≈ 8.37 µM) | 50 (≈ 131 µM) | 50 (≈ 131 µM) | 25 (≈ 65.4 µM)
Cc1nc2c([se]1)C(=O)C=C(Nc1ccc(C(F)(F)F)cc1)C2=O | 3.2 (≈ 8.31 µM) | 3.2 (≈ 8.31 µM) | 25 (≈ 64.9 µM) | 12.5 (≈ 32.5 µM) | 25 (≈ 64.9 µM)
COC1=C(Sc2ccccc2)C(=O)c2[se]c(C)nc2C1=O | 6.3 (≈ 17.3 µM) | 6.3 (≈ 17.3 µM) | 12.5 (≈ 34.3 µM) | 12.5 (≈ 34.3 µM) | 6.3 (≈ 17.3 µM)
Cc1nc2c([se]1)C(=O)C=C(Nc1ccc(I)cc1)C2=O | 25 (≈ 56.4 µM) | 25 (≈ 56.4 µM) | 25 (≈ 56.4 µM) | 25 (≈ 56.4 µM) | 25 (≈ 56.4 µM)
